Test results from ChEMBL document CHEMBL3297730, “Identification of 2,3-disubstituted pyridines as potent, non-emetic PDE4 inhibitors” (Bioorg Med Chem Lett, 2014).
Blank lines part the entries; values can stand above or below the molecule they belong to.

Legend:
[1] = system: Mustela putorius furo; test: Toxicity in Marshall ferret assessed as vomiting at 10 mg/kg, po after 2 hrs; format: organism-based; set-up: dose 10 mg/kg, route oral; conditions: in vivo
[2] = system: Cavia porcellus; test: Induction of bronchodilation in ovalbumin-sensitized guinea pig at 10 mg/kg, po administered 4 hrs prior to ovalbumin challenge measured for 20 mins relative to vehicle-treated control; format: functional
[3] = system: Cavia porcellus; test: Induction of bronchodilation in ovalbumin-sensitized guinea pig at 10 mg/kg, po administered 1 hr prior to ovalbumin challenge measured for 20 mins relative to vehicle-treated control; format: functional
[4] = system: Mustela putorius furo; test: Toxicity in po dosed Marshall ferret assessed as vomiting; format: organism-based; conditions: in vivo
[5] = system: Mustela putorius furo; test: Toxicity in Marshall ferret assessed as vomiting at 1 mg/kg, po after 2 hrs; format: organism-based; set-up: dose 1 mg/kg, route oral; conditions: in vivo
[6] = species: Cavia porcellus; test: Inhibition of Hartley guinea pig PDE4 assessed as hydrolization of cAMP by measuring [3H]cAMP at 100 nM by radioisotope method
[7] = system: Mus musculus; test: Inhibition of eosinophil infiltration in ovalbumin-sensitized mouse at 10 mg/kg, po qd for 2 days administered 30 mins prior to ovalbumin challenge relative to vehicle-treated control; format: functional
[8] = Drug level in ovalbumin-sensitized guinea pig lung treated with [14C]-2-(3-chlorophenoxy)-3-[3-(3-hydroxypyridin-4-yl)propoxy]pyridine at 10 mg/kg, po after 0.5 hrs; format: ADME, organism-based, Cavia porcellus; set-up: dose 10 mg/kg, route oral; conditions: in vivo
[9] = Drug level in ovalbumin-sensitized guinea pig trachea treated with [14C]-2-(3-chlorophenoxy)-3-[3-(3-hydroxypyridin-4-yl)propoxy]pyridine at 10 mg/kg, po after 0.5 hrs; format: ADME, organism-based, Cavia porcellus; set-up: dose 10 mg/kg, route oral; conditions: in vivo
[10] = Drug level in ovalbumin-sensitized guinea pig plasma treated with [14C]-2-(3-chlorophenoxy)-3-[3-(3-hydroxypyridin-4-yl)propoxy]pyridine at 10 mg/kg, po after 4 hrs; format: ADME, organism-based, Cavia porcellus; set-up: dose 10 mg/kg, route oral; conditions: in vivo
[11] = Drug level in ovalbumin-sensitized guinea pig trachea treated with [14C]-2-(3-chlorophenoxy)-3-[3-(3-hydroxypyridin-4-yl)propoxy]pyridine at 10 mg/kg, po after 4 hrs; format: ADME, organism-based, Cavia porcellus; set-up: dose 10 mg/kg, route oral; conditions: in vivo
[12] = Drug level in ovalbumin-sensitized guinea pig plasma treated with [14C]-2-(3-chlorophenoxy)-3-[3-(3-hydroxypyridin-4-yl)propoxy]pyridine at 10 mg/kg, po after 0.5 hrs; format: ADME, organism-based, Cavia porcellus; set-up: dose 10 mg/kg, route oral; conditions: in vivo
[13] = Drug level in ovalbumin-sensitized guinea pig trachea treated with [14C]-2-(3-chlorophenoxy)-3-[3-(3-hydroxypyridin-4-yl)propoxy]pyridine at 10 mg/kg, po after 2 hrs; format: ADME, organism-based, Cavia porcellus; set-up: dose 10 mg/kg, route oral; conditions: in vivo
[14] = Inhibition of Hartley guinea pig PDE4 assessed as hydrolization by radioisotope method; set-up: species or system Cavia porcellus
[15] = Drug level in ovalbumin-sensitized guinea pig plasma treated with [14C]-2-(3-chlorophenoxy)-3-[3-(3-hydroxypyridin-4-yl)propoxy]pyridine at 10 mg/kg, po after 2 hrs; format: ADME, organism-based, Cavia porcellus; set-up: dose 10 mg/kg, route oral; conditions: in vivo
[16] = Drug level in ovalbumin-sensitized guinea pig lung treated with [14C]-2-(3-chlorophenoxy)-3-[3-(3-hydroxypyridin-4-yl)propoxy]pyridine at 10 mg/kg, po after 4 hrs; format: ADME, organism-based, Cavia porcellus; set-up: dose 10 mg/kg, route oral; conditions: in vivo
[17] = Drug level in ovalbumin-sensitized guinea pig lung treated with [14C]-2-(3-chlorophenoxy)-3-[3-(3-hydroxypyridin-4-yl)propoxy]pyridine at 10 mg/kg, po after 2 hrs; format: ADME, organism-based, Cavia porcellus; set-up: dose 10 mg/kg, route oral; conditions: in vivo
[18] = Drug level in ovalbumin-sensitized guinea pig brain assessed as radioactivity at 10 mg/kg, po after 4 hrs; format: ADME, organism-based, Cavia porcellus; set-up: dose 10 mg/kg, route oral; conditions: in vivo
[19] = Drug level in ovalbumin-sensitized guinea pig lung assessed as radioactivity at 10 mg/kg, po after 0.5 hrs; format: ADME, organism-based, Cavia porcellus; set-up: dose 10 mg/kg, route oral; conditions: in vivo
[20] = Drug level in ovalbumin-sensitized guinea pig brain assessed as radioactivity at 10 mg/kg, po after 2 hrs; format: ADME, organism-based, Cavia porcellus; set-up: dose 10 mg/kg, route oral; conditions: in vivo
[21] = Drug level in ovalbumin-sensitized guinea pig trachea assessed as radioactivity at 10 mg/kg, po after 2 hrs; format: ADME, organism-based, Cavia porcellus; set-up: dose 10 mg/kg, route oral; conditions: in vivo
[22] = Drug level in ovalbumin-sensitized guinea pig trachea assessed as radioactivity at 10 mg/kg, po after 0.5 hrs; format: ADME, organism-based, Cavia porcellus; set-up: dose 10 mg/kg, route oral; conditions: in vivo
[23] = Drug level in ovalbumin-sensitized guinea pig lung assessed as radioactivity at 10 mg/kg, po after 2 hrs; format: ADME, organism-based, Cavia porcellus; set-up: dose 10 mg/kg, route oral; conditions: in vivo
[24] = Drug level in ovalbumin-sensitized guinea pig plasma assessed as radioactivity at 10 mg/kg, po after 0.5 hrs; format: ADME, organism-based, Cavia porcellus; set-up: dose 10 mg/kg, route oral; conditions: in vivo
[25] = system: Mustela putorius furo; test: Toxicity in Marshall ferret assessed as vomiting at 30 mg/kg, po after 2 hrs; format: organism-based; set-up: dose 30 mg/kg, route oral; conditions: in vivo
[26] = Drug level in ovalbumin-sensitized guinea pig plasma assessed as radioactivity at 10 mg/kg, po after 4 hrs; format: ADME, organism-based, Cavia porcellus; set-up: dose 10 mg/kg, route oral; conditions: in vivo
[27] = Drug level in ovalbumin-sensitized guinea pig brain assessed as radioactivity at 10 mg/kg, po after 0.5 hrs; format: ADME, organism-based, Cavia porcellus; set-up: dose 10 mg/kg, route oral; conditions: in vivo
[28] = Drug level in ovalbumin-sensitized guinea pig trachea assessed as radioactivity at 10 mg/kg, po after 4 hrs; format: ADME, organism-based, Cavia porcellus; set-up: dose 10 mg/kg, route oral; conditions: in vivo
[29] = biological target: Phosphodiesterase 4 (Homo sapiens, UniProt P27815+Q08499+Q07343+Q08493); test: Inhibition of human PDE4; format: protein assay
[30] = system: Mustela putorius furo; test: Toxicity in Marshall ferret assessed as vomiting at 300 mg/kg, po after 2 hrs; format: organism-based; set-up: dose 300 mg/kg, route oral; conditions: in vivo
[31] = species: Cavia porcellus; test: Inhibition of immediate asthmatic response in ovalbumin-sensitized guinea pig; format: functional
[32] = Drug level in ovalbumin-sensitized guinea pig lung assessed as radioactivity at 10 mg/kg, po after 4 hrs; format: ADME, organism-based, Cavia porcellus; set-up: dose 10 mg/kg, route oral; conditions: in vivo
[33] = Inhibition of bovine PDE3; set-up: species or system Bos taurus
[34] = species: Cavia porcellus; test: Inhibition of late asthmatic response in ovalbumin-sensitized guinea pig; format: functional
[35] = Drug level in ovalbumin-sensitized guinea pig plasma assessed as radioactivity at 10 mg/kg, po after 2 hrs; format: ADME, organism-based, Cavia porcellus; set-up: dose 10 mg/kg, route oral; conditions: in vivo

inhibition [6]: 54%
Compound: COc1ccc(C2CNC(=O)C2)cc1OC1CCCC1 (centres undefined) [ROLIPRAM]
Activity [1]: Toxic | Activity [2]: 13% | Activity [3]: 50% | Activity [4]: Dose-dependent effect | Activity [5]: Non-toxic

inhibition [6]: 66%
Compound: Oc1cnccc1CCCOc1cccnc1Sc1cccc(Br)c1
inhibition in vivo at 10 mg/kg [7]: 33% | Activity [3]: 8%

inhibition [6]: 80%
Compound: Brc1cccc(Oc2ncccc2OCCCc2ccncc2)c1
inhibition in vivo at 10 mg/kg [7]: 23% | Activity [3]: 49%

inhibition [6]: 51%
Compound: Brc1cccc(Nc2ncccc2OCCCc2ccncc2)c1

inhibition [6]: 87%
Compound: Oc1cnccc1CCCOc1cccnc1Cc1cccc(Br)c1
inhibition in vivo at 10 mg/kg [7]: 44% | Activity [3]: 13%

IC50 [14]: 11500 nM
Compound: O=C(O)[C@H]1O[C@@H](Oc2cnccc2CCCOc2cccnc2Oc2cccc(Cl)c2)[C@H](O)[C@@H](O)[C@@H]1O
Drug uptake [8]: 46.5 ngequiv/g | Drug uptake [9]: 53.6 ngequiv/g | Cp [10]: 79.3 ngequiv/ml | Drug uptake [11]: 28.1 ngequiv/g | Cp [12]: 130.4 ngequiv/ml | Drug uptake [13]: 33.7 ngequiv/g | Cp [15]: 130.8 ngequiv/ml | Drug uptake [16]: 33.8 ngequiv/g | Drug uptake [17]: 59.5 ngequiv/g

inhibition [6]: 6%
Compound: Oc1cnccc1CCCOc1cccnc1Oc1cc(Cl)cc(Cl)c1

inhibition [6]: 75% | IC50 [14]: 38 nM | IC50 [29]: 33 nM | IC50 [33]: > 30000 nM
Compound: Oc1cnccc1CCCOc1cccnc1Oc1cccc(Cl)c1
Activity [1]: Non-toxic | Drug uptake [8]: 21 ngequiv/g | Drug uptake [18]: 14.5 ngequiv/g | Drug uptake [19]: 251.2 ngequiv/g | Activity [2]: 45% | Drug uptake [20]: 17.7 ngequiv/g | Drug uptake [9]: 14.4 ngequiv/g | Activity [3]: 55% | Drug uptake [21]: 85.1 ngequiv/g | Drug uptake [22]: 142.1 ngequiv/g | Drug uptake [23]: 232.9 ngequiv/g | Cp [24]: 387.6 ngequiv/ml | Activity [25]: Non-toxic | Cp [26]: 346.2 ngequiv/ml | Cp [12]: 1.7 ngequiv/ml | Drug uptake [27]: 31.9 ngequiv/g | Drug uptake [28]: 90.1 ngequiv/g | Activity [30]: Non-toxic | inhibition (INH) [31]: 45% | Drug uptake [16]: 7.7 ngequiv/g | Drug uptake [32]: 178.7 ngequiv/g | Drug uptake [17]: 12.8 ngequiv/g | inhibition (INH) [34]: 40% | Cp [35]: 452.8 ngequiv/ml

inhibition [6]: 77%
Compound: Oc1cnccc1CCCOc1cccnc1Oc1cccc(Br)c1
inhibition in vivo at 10 mg/kg [7]: 50% | Activity [2]: 12% | Activity [3]: 70% | Activity [25]: Non-toxic

inhibition [6]: 46%
Compound: Oc1cnccc1CCCOc1cccnc1Oc1ccc(Cl)cc1

inhibition [6]: 89%
Compound: Brc1cccc(Cc2ncccc2OCCCc2ccncc2)c1
inhibition in vivo at 10 mg/kg [7]: 43% | Activity [3]: 63%

inhibition [6]: 80%
Compound: Brc1cccc(Sc2ncccc2OCCCc2ccncc2)c1
inhibition in vivo at 10 mg/kg [7]: 50% | Activity [3]: 77% | Activity [4]: Dose-dependent effect | Activity [25]: Toxic

IC50 [14]: 837 nM
Compound: O=S(=O)(O)Oc1cnccc1CCCOc1cccnc1Oc1cccc(Cl)c1
Drug uptake [8]: 29.2 ngequiv/g | Drug uptake [9]: 17.2 ngequiv/g | Cp [10]: 194.4 ngequiv/ml | Drug uptake [11]: 44 ngequiv/g | Cp [12]: 43.8 ngequiv/ml | Drug uptake [13]: 34.4 ngequiv/g | Cp [15]: 219.2 ngequiv/ml | Drug uptake [16]: 79.9 ngequiv/g | Drug uptake [17]: 78.9 ngequiv/g

inhibition [6]: 27%
Compound: O=C(c1cccc(Br)c1)c1ncccc1OCCCc1ccncc1

inhibition [6]: 30%
Compound: Oc1cnccc1CCCOc1cccnc1Oc1ccccc1Cl

inhibition [6]: 74%
Compound: Oc1cnccc1CCCOc1cccnc1Oc1cccc(F)c1
Activity [2]: 9% | Activity [3]: 55%
